From patent US12486218B2, “Compounds advantageous in the treatment of central nervous system diseases and disorders” (AurimMed Pharma, Inc., priority 2008, dated 2025)

Columns and labels:
rats [1] = assay: Minimal motor impairment (MID50), rats p.o.; type: in vivo
rats [2] = assay: s.c. MET test, rats p.o.; type: in vivo; conditions: Rattus norvegicus, p.o.
CYP-450 2C19 = CYP-450 2C19 (Homo sapiens, UniProt P33261); assay: In vitro human CYP-450 study, 2C19; type: in vitro ADME; conditions: human enzyme
Description: (§1) On the other hand, it is an inhibitor for 2C19, 2D6, 2A6 and 2C9.

CYP-450 2E1 = CYP-450 2E1 (Homo sapiens, UniProt P05181); assay: In vitro human CYP-450 study, 2E1; type: in vitro ADME; conditions: human enzyme
Description: as §1

CYP-450 2A6 = CYP-450 2A6 (Homo sapiens, UniProt P11509); assay: In vitro human CYP-450 study, 2A6; type: in vitro ADME; conditions: human enzyme
Description: as §1

rats [3] = assay: Sciatic nerve ligation model in rats; type: in vivo; conditions: 62 mg/kg, at 0.5 hours
Description: [The response (threshold for foot withdrawal) was measured in grams.]

GABA receptors = assay: Electrophysiology, GABA receptor currents; type: cell-based; conditions: at 100 μM, holding potential −70 mV
Description: The mechanisms of action of many currently marketed anticonvulsant drugs are not fully understood. Although numerous molecular targets exist wherein anticonvulsants may exert an effect, the final common pathway appears to be through modulation of voltage-gated and/or neurotransmitter-gated ion channels. Thus, the common link among the various proposed mechanisms involves the ability of an anticonvulsant to modulate ion channel function. Presently, a number of prototype anticonvulsants are thought to exert their action (at least in part) by reducing sustained, high-frequency repetitive firing of action potentials by modulating voltage-dependent sodium (Na+) channels. The effect of promising candidate substances on voltage-gated Na+ channels can be assessed using state-of-the-art electrophysiological techniques.

mice = assay: Corneal kindled mouse model; type: in vivo; conditions: mice i.p.; 50 mg/kg @ 1.0 hr
[4] = tested on: CYP2C19, CYP2D6, CYP2A6, CYP2C9; assay: In vitro human CYP-450 study, Ki values over the enzymes; type: in vitro ADME; conditions: range over the enzymes, not assigned to single isoforms
Description: as §1

rats [5] = assay: MES test, rats p.o.; type: in vivo; conditions: Rattus norvegicus, po
[6] = tested on: rat dopaminergic N27 cells; assay: N27 protection assay against oxidative stress (H2O2 or MPP+; MTT and LDH); type: cell-based; conditions: drug 24 hours before 200 μM H2O2 or 640 μM MPP+
Method in brief: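 Protection mode: N27 cells pretreated with drug at various concentrations for 24 hours, then exposed to 200 μM H2O2 or 640 μM MPP+. Recovery mode: cells damaged by H2O2 first, drug applied afterwards. Viability measured by MTT reduction and cytotoxicity by released LDH.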

hippocampal neurons = assay: Hippocampal cell loss after pilocarpine-induced SE (FluoroJade B); type: in vivo; conditions: given 30 minutes after the first stage 3 convulsive seizure
Description: Pilocarpine-induced SE results in marked cell loss in the hippocampus, when compared to the naïve vehicle-treated rats, as evidenced by increased FluoroJade B fluorescence in the dentate gyrus (DG), CA1, and CA3 cell layers.

Drosophila = assay: Rotenone-induced toxicity, Drosophila model of sporadic Parkinson's disease; type: in vivo
Description: FIGS. 26A-26C illustrate the effect of compound BX in another Parkinson's disease model. Chronic infusion of rotenone to fruit flies reproduces many features of Parkinson disease. Rotenone is a pesticide that inhibits mitochondrial complex I activity, thus creating an environment of oxidative stress in the cell. Many studies have employed rotenone to generate an experimental animal model of Parkinson's disease (PD) that mimics and elicits PD-like symptoms, such as motor and cognitive decline. […] Compound BX therefore protects Drosophila from the neurotoxic effects of rotenone and may prevent oxidative stress in dopaminergic neurons.

SMN2 promoter = SMN2 promoter β-lactamase reporter assay in NSC34 motor neuron-like cells; type: cell-based
Description: FIG. 30 illustrates a screen for SMN2 expression of a number of compounds described herein.
SMN2 promoter activity was measured using NSC34 motor neuron-like cells stably transfected with a β-lactamase (BLA) reporter gene under the control of a 3.4-kilobase fragment of the SMN2 promoter. D156844 was used as a positive control for this assay.

CYP-450 2C19, sequence (P33261 whole entry): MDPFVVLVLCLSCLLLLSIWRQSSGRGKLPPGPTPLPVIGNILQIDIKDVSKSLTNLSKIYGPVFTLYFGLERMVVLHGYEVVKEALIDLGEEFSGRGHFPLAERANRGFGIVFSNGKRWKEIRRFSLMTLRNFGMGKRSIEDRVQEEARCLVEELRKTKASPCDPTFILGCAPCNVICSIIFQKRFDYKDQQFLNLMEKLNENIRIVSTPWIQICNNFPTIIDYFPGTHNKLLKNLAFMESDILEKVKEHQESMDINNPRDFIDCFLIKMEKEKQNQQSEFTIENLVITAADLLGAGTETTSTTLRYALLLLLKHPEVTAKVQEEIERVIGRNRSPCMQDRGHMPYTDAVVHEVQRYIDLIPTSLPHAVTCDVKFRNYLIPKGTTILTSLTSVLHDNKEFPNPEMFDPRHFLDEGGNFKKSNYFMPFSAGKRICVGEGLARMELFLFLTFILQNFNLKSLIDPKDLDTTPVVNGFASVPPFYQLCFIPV
CYP-450 2A6, sequence (P11509 whole entry): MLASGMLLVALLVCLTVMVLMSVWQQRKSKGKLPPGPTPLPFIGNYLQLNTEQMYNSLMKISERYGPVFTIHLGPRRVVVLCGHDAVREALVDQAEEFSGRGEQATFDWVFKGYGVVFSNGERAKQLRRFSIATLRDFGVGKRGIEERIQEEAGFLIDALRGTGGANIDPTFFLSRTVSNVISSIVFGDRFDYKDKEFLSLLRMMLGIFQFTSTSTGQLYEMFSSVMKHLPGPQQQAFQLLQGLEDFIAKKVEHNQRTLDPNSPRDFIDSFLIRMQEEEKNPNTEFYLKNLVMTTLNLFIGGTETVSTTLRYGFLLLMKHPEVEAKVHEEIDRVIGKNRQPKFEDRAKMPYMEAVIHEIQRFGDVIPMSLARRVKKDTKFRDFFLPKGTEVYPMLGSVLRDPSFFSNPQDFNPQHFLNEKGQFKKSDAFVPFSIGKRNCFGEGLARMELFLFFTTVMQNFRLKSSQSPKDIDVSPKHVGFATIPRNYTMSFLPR
CYP-450 2E1, sequence (P05181 whole entry): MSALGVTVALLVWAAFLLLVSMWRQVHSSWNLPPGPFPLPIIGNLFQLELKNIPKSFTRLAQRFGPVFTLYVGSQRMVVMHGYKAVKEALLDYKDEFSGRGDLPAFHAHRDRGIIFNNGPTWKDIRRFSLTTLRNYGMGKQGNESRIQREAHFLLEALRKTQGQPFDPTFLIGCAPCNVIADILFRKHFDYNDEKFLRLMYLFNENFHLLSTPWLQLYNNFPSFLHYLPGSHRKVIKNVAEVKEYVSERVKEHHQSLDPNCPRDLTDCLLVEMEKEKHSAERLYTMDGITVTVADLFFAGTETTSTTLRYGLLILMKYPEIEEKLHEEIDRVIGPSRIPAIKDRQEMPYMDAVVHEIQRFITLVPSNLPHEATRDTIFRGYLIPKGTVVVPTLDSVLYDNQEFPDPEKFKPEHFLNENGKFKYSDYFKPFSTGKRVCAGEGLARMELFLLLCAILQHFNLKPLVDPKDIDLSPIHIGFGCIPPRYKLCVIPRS

SMILES	MID50 (rats [1]) [mg/kg]	ED50 (rats [2]) [mg/kg]	inhibition of CYP-450 2C19 (CYP-450 2C19)	inhibition of CYP-450 2E1 (CYP-450 2E1)	inhibition of CYP-450 2A6 (CYP-450 2A6)	allodynic threshold (rats [3])	GABA receptor response (GABA receptors)	Corneal Kindled, Average seizure score (mice)	Corneal Kindled, fraction of animals (mice)	Ki [4] [µM]	ED50 (rats [5]) [mg/kg]	neuroprotective effect against H2O2 and MPP+ oxidative stresses (MTT and LDH assays) [6]	rats with partial neuroprotection (CA3 and hilar neurons of DG preserved) (hippocampal neurons)	animals with complete neuroprotection of hippocampal neurons against SE-induced cell death (hippocampal neurons; rats)	survival of Drosophila exposed to rotenone (Drosophila; 500 μM rotenone)	locomotion speed in rotenone-treated flies (Drosophila; rotenone-treated Drosophila versus mock-treated controls)	SMN2 promoter assay, particularly strong hits (SMN2 promoter; NSC34 BLA reporter cells)	Promoter (SMN2 promoter test, summary YES/NO) (SMN2 promoter; Table 13 summary)	SMN2 promoter activity (SMN2 promoter; treatment for 19 hours at a concentration of 1 μM)
CC(CC(N)=O)c1ccc(OC(F)(F)F)cc1 (racemic) [Compound H, 3-[4-(trifluoromethoxy)-phenyl]butyramide]	>500	88.1	inhibitor	either no or only a remote possibility of inhibiting	inhibitor	455 % of the control	108±3 % of control	2: (0, 4,	2/4 @	29 to 174	56.7								
C[C@H](CC(N)=O)c1ccc(OC(F)(F)F)cc1 (single isomer, unassigned) [Compound BX, R-(−)-3-(4-Trifluoromethoxy-phenyl)butyramide]												potent dose-dependent neuroprotective effects	2	11/15	enhances survival	increases locomotion speed in rotenone-treated flies to a level virtually indistinguishable from mock-treated controls	Particularly strong hits	YES	increased SMN2 promoter activity
